# Measurements taken from US20260248747A1, “PHYSICAL PERFORMANCE AID” (aXichem AB, priority 2023, published 2026).
# Where “and” joins values, the source holds several entries; their conditions need not be identical. Equal entries are not always repeated. Entries after “also recorded” stand apart in the source; their conditions may differ.
# Key:
# [1] = test system: healthy men with resistance training experience; set-up: species or system human; conditions: in vivo
# resistance trained men [2] = test system: resistance trained men; set-up: species or system human; conditions: in vivo
# resistance trained men [3] = test system: resistance trained men; set-up: species or system human; conditions: in vivo; remark: listed apart in the source
# resistance trained men [4] = test system: resistance trained men; set-up: species or system human; conditions: in vivo, po
# [5] = test system: healthy men with resistance training experience; set-up: species or system human; conditions: in vivo; remark: listed apart in the source
# resistance trained men [6] = test system: resistance trained men; set-up: species or system human; conditions: in vivo; remark: listed apart in the source
# [7] = test system: healthy men with resistance training experience; set-up: species or system human; conditions: in vivo; remark: listed apart in the source
# resistance trained men [8] = test system: resistance trained men; set-up: species or system human; conditions: in vivo
# [9] = test system: healthy men with resistance training experience; set-up: species or system human; conditions: in vivo; remark: listed apart in the source
# [10] = 1.2 mg purified capsaicin in gummy format; isokinetic knee extension; cited from earlier work
# trained men = conditions: acute 12 mg capsaicin; squat exercise; cited from earlier work
# [11] = high-dose oral encapsulated capsaicin, 25.8 mg; cited from earlier work
compound,measurement,setting,value
phenylcapsaicyn,MIF,[1],"1,175.92 ± 370.86 N and 1,182.71 ± 429.84 N and 1,063.035 ± 265.86 N and 1,091.67 ± 331.61 N and 1,084.25 ± 375.82 N and 1,131.50 ± 420.02 N"
same,RFD0-50,[1],"2,765.42 ± 1,725.44 N · s^1 and 2,544.07 ± 1,150.29 N · s^1 and 2,335.85 ± 1,408.53 N · s^1 and 2,375.33 ± 1,172.75 N · s^1 and 2,006.35 ± 773.62 N · s^1 and 2,190.07 ± 1,249.61 N · s^1"
same,RFD0-100,[1],"2,921.42 ± 1,353.33 N · s^1 and 2,585.57 ± 1,998.95 N · s^1 and 2,320.43 ± 1,229.46 N · s^1 and 1,968.46 ± 1,373.43 N · s^1 and 2,129.25 ± 942.03 N · s^1 and 2,377.32 ± 1,196.68 N · s^1"
same,RFD0-150,[1],"2,958.42 ± 1,280.93 N · s^1 and 2,635.67 ± 1,075.21 N · s^1 and 2,388.16 ± 1,184.60 N · s^1 and 2,129.54 ± 1,279.24 N · s^1 and 2,260.47 ± 1,032.89 N · s^1 and 2,450.52 ± 1,275.39 N · s^1"
same,RFD0-200,[1],"2,697.29 ± 1,219.14 N · s^1 and 2,456.98 ± 1,052.11 N · s^1 and 2,178.30 ± 1,101.08 N · s^1 and 1,973.26 ± 1,214.84 N · s^1 and 2,067.32 ± 978.09 N · s^1 and 2,361.75 ± 1,214.58 N · s^1"
same,RFD0-400,[1],"1,764.86 ± 898.55 N · s^1 and 1,784.80 ± 809.39 N · s^1 and 1,489.55 ± 733.99 N · s^1 and 1,521.34 ± 853.94 N · s^1 and 1,610.34 ± 773.99 N · s^1 and 1,664.43 ± 912.04 N · s^1"
same,"isometric mechanical outcomes (MIF, RFD), two-way repeated measures ANOVAs",[1],no significant differences for any outcome
same,"AST post values, post-hoc Wilcoxon comparison",resistance trained men [2],significant higher post levels of AST for PLA compared to HD
same,AST,resistance trained men [2]; po,17.40 ± 11.25 U/L and 16.37 ± 11.29 U/L and 27.06 ± 14.66 U/L and 22.39 ± 10.86 U/L
same,AST (% change),resistance trained men [2]; po,119.62 ± 166.08% and 110.21 ± 167.16%
same,"PRS, one-way repeated measures ANOVA between conditions",resistance trained men [3],no differences between conditions
same,"RPE-AM (local RPE in quadriceps), Bonferroni post-hoc comparison",resistance trained men [3],significant differences
same,"RPE-OB, Bonferroni post-hoc analyses between conditions",resistance trained men [3],no significant differences
same,"perceived exertion for the active muscle, RPE-AM",resistance trained men [3],reduced perceived exertion for the active muscle
same,Lactate (% change),resistance trained men [4],663.97 ± 352.36% and 653.16 ± 307.31%
same,60% load MFP best,[5],950.82 ± 170.05 N and 945.34 ± 152.48 N and 907.38 ± 148.53 N and 903.85 ± 155.90 N and 930.60 ± 146.67 N and 936.27 ± 149.32 N
same,60% load MPP best,[5],822.00 ± 166.47 W and 810.71 ± 157.90 W and 688.32 ± 166.67 W and 698.67 ± 180.46 W and 796.70 ± 149.05 W and 798.56 ± 170.19 W
same,60% load MPV best,[5],0.93 ± 0.06 m/s and 0.80 ± 0.08 m/s and 0.81 ± 0.12 m/s and 0.93 ± 0.09 m/s and 0.91 ± 0.08 m/s
same,% VL (percentage of velocity loss during a set),[5],29.78 ± 10.90% and 26.62 ± 9.37% and 30.91 ± 10.24% and 26.65 ± 11.73% and 34.36 ± 12.15%
same,MFP mean,[5],974.60 ± 162.62 N and 962.14 ± 148.59 N and 950.75 ± 161.58 N and 942.66 ± 141.94 N and 941.04 ± 156.67 N and 931.41 ± 141.91 N
same,MPP Best,[5],770.42 ± 151.29 W and 744.70 ± 169.44 W and 694.45 ± 160.43 W and 701.32 ± 147.81 W and 681.99 ± 149.20 W and 683.86 ± 141.59 W
same,MPP mean,[5],626.70 ± 147.11 W and 612.99 ± 145.84 W and 559.89 ± 128.61 W and 583.27 ± 128.14 W and 539.99 ± 126.34 W and 548.46 ± 135.58 W
same,MPV best,[5],0.78 ± 0.05 m/s and 0.79 ± 0.06 m/s and 0.72 ± 0.07 m/s and 0.74 ± 0.07 m/s and 0.71 ± 0.07 m/s and 0.73 ± 0.05 m/s
same,MPV mean,[5],0.66 ± 0.07 m/s and 0.68 ± 0.07 m/s and 0.60 ± 0.07 m/s and 0.64 ± 0.08 m/s and 0.58 ± 0.08 m/s and 0.61 ± 0.08 m/s
same,"MPV of individual repetitions, post-hoc Bonferroni",[5],differences between HD and PLA in repetition 23; also recorded: HD and LD in repetitions 15 and 16
same,Total volume load,[5],"2,014.57 ± 380.94 kg"
same,"percentage of change for urea values, post-hoc Wilcoxon comparison",resistance trained men [6],significant higher percentage of change for LID compared to PLA
same,Urea,resistance trained men [6]; po,40.77 ± 14.17 mg/dL and 37.48 ± 18.18 mg/dL and 29.77 ± 10.67 mg/dL and 30.31 ± 10.41 mg/dL
same,"CMJ height post values, post-hoc Wilcoxon comparison",[7],significant differences
same,countermovement jump (CMJ) post and post 24 stages,[7],exhibited higher values
same,"percentage of change in CMJ from pre to post values, post-hoc analyses",[7],did not reach any significant difference
same,"60% fastest velocity, post-hoc Bonferroni comparison",resistance trained men [8],significant differences between LD and PLA
same,60% fastest-V,resistance trained men [8],0.97 ± 0.07 m · s^−1 and 0.96 ± 0.07 m · s^−1
same,Fastest-V,resistance trained men [8],0.87 ± 0.03 m · s^−1 and 0.80 ± 0.06 m · s^−1
same,Mean-Vt,resistance trained men [8],0.61 ± 0.07 m · s^−1 and 0.64 ± 0.07 m · s^−1
same,Repetitions performed in the protocol,resistance trained men [8],24 ± 0.00
same,Slowest-Vt,resistance trained men [8],0.45 ± 0.09 m · s^−1 and 0.49 ± 0.09 m · s^−1
same,Weight,resistance trained men [8],87.69 ± 15.87 kg and 87.57 ± 14.69 kg
same,"maximal velocity loss, post-hoc Bonferroni comparison",resistance trained men [8],significant differences between HD and LD
same,"mean velocity, post-hoc Bonferroni comparison",resistance trained men [8],almost was achieved between HD and PLA
same,60% load MDF VLA,[9],94.20 ± 12.57% and 92.43 ± 15.57% and 87.66 ± 11.86% and 87.61 ± 11.16% and 89.62 ± 12.28% and 94.85 ± 19.89%
same,60% load MDF VM,[9],93.24 ± 12.84% and 87.62 ± 9.55% and 88.27 ± 13.74% and 87.29 ± 15.23% and 88.62 ± 16.06% and 84.97 ± 10.64%
same,60% load RMS VLA,[9],131.16 ± 36.34% and 144.45 ± 50.27% and 119.38 ± 47.67% and 103.95 ± 49.44% and 149.81 ± 47.00% and 133.16 ± 33.21%
same,"60% load RMS VLA, post-hoc Bonferroni comparison",[9],significant differences between PLA and LID
same,60% load RMS VM,[9],131.17 ± 29.13% and 120.88 ± 31.08% and 117.18 ± 19.75% and 112.41 ± 42.15% and 133.87 ± 43.81% and 138.30 ± 47.06%
same,Isometric MDF VLA,[9],98.12 ± 9.79% and 99.07 ± 13.42% and 97.78 ± 9.79% and 100.39 ± 12.86%
same,Isometric MDF VM,[9],93.75 ± 11.10% and 91.04 ± 14.79% and 97.28 ± 13.72% and 101.88 ± 18.22%
same,Isometric RMS VLA,[9],99.88 ± 41.48% and 99.21 ± 50.39% and 126.91 ± 33.50% and 100.25 ± 25.60%
same,Isometric RMS VM,[9],120.01 ± 58.48% and 118.65 ± 41.54% and 113.38 ± 24.62% and 102.79 ± 32.43%
same,Training MDF VLA,[9],89.90 ± 10.21% and 90.47 ± 12.71% and 88.36 ± 11.03% and 89.99 ± 12.70% and 86.91 ± 9.27% and 89.91 ± 11.39%
same,Training MDF VM,[9],85.63 ± 11.87% and 91.01 ± 15.42% and 84.07 ± 11.93% and 90.42 ± 18.35% and 83.74 ± 9.68% and 90.58 ± 15.25%
same,Training RMS VLA,[9],123.84 ± 34.86% and 121.24 ± 36.40% and 146.42 ± 47.13% and 119.29 ± 38.40% and 135.14 ± 53.99% and 107.20 ± 42.77%
same,Training RMS VM,[9],128.39 ± 50.89% and 111.81 ± 31.90% and 132.39 ± 40.98% and 109.58 ± 36.84% and 138.04 ± 55.37% and 107.44 ± 35.96%
same,"training RMS VM, post-hoc Bonferroni comparison",[9],significant differences were found between HD and LID
"COc1cc(CNC(=O)CCCC/C=C/C(C)C)ccc1O [capsaicin, 8-methyl-N-vanillyl-trans-6-nonenamide]",summed torque or fatigue index,[10],did not reach significant differences
same,number of repetitions until failure,trained men,increased significantly
same,rated perceived exertion overall body (RPE-OB),trained men,reduced
same,total weight lifted,trained men,increased significantly
same,tolerability after oral supplementation,[11],intestinal discomfort
